Consider 2 substances from patent publication US20140018340A1, “Insulin Mimetic Active Comprising Oxodiperoxo Vanadates and a Pharmaceutical Composition Obtained Thereof” (priority 2011, published 2014).

In assay [1] the test system is Glut4 in 3T3-L1 adipocytes. In words: In vitro assay of Glut 4 translocation (GFP-Glut4 transfected cells). It is filed as cell-based. The settings on record: GFP-Glut4 transfected 3T3-L1 adipocytes.
The conditions of assay [2]: dose inducing insulin like activity, from cited reference; cited from earlier work.

For the substance “insulin: the hormone which regulates the body's glucose level and metabolism”, in assay [1], the “Glut4 translocation from cytosol to membrane” value was “gets translocated to the membrane on addition of insulin”.
For the substance pervanadate, in assay [2], the Dose in-vitro is 1 mM.
